Structures are written as SMILES. Counter-ions that a name gives are not always drawn. Like-named read-outs stand apart in the source and are kept apart here. Bounds are passed on as bounds.

Data on 14 compounds can be found in patent US20230263164A1 (priority 2020, published 2023).

The test system of one data set is corn plants. In kind it is in vivo.
For another data set, the system named is pea plants. Nature of the data set: Growth of peas exposed to dibutyldithiophosphate (pots, 88 days). In kind it is in vivo. On the procedure: Peas were planted and grown in 8.25 inch TEKU pots. The pots were packed finger tight with potting mix #4 from Beautiful Land Products. The pea seeds were planted approximately 1.5 inches deep. 25 seeds were planted per dosing of dibutyldithiophosphate potassium salt. After the seeds were planted into the soil the desired amount of dibutyldithiophosphate for 32 doses was added to 160 mL of tap water. After mixing well for 10 minutes, 5 mL of the dibutyldithiophosphate solution was then added to the top of each seed after it was planted in the soil. Soil was then used to cover the seed. After adding the salt, the plants were moved outside in full sunlight until harvest. The pea plants were watered daily. Peter's Professional B 20-20-20 water soluble fertilizer was used at 1 tablespoon per 3 gallons of tap water and 350 mL of this solution was added to each plant. Plants were fertilized on day 44, 51, 66, 73, and 81.
The pea plants were harvested after 88 days. The plant was harvested by cutting the above soil portion of the plant at the root-stem boundary. The above ground portion of the plant was weighed in its entirety. Next the pods were removed, counted and weighed separately from the rest of the plant. Statistical analysis was performed using IBM SPSS Statistics 25. Dunnett's 2-sided t-test was performed to determine significance. Data represented are mean±standard error with ** indicating α<0.05 and * indicating α<0.1.

Another data set deals with soybeans. Nature of the data set: Field trial: harvest yield of soybeans. To be noted: 2 kg (per acre), side dressing, vs plants not exposed. In kind it is in vivo. From the text: All essential plant nutrients (N, P, K, and S) were applied in non-limiting amounts. Prior to planting soybeans, the fields were fertilized with 60 lb acre of P2O5, 80 lb per acre of K2O, and 20 lb per acre of sulfur. The soybean seeds were a 2.8-3.2 relative maturity planted at 120,000 to 140,000 seeds per acre. All field management were designed to effectively control weed and insect pests to optimize soybean growth and yield. The soybeans were planted and either 0, 0.5, 1.0, or 2.0 kg per acre of dibutyldithiophosphate was applied as a side dressing to the soybean plants. The dibutyldithiophosphate was dissolved in water and applied. The harvest weight was determined for each plot and corrected for slight differences in moisture content.

The next data set is described as follows: physchem. To be noted: buffer, t1/2 (days) of first step.
For data set [1] the following is noted: 90% H2O/D2O; for Percent Degradation: 31P NMR.
Data set [2] is classed as physicochemical.
Assay in data set [3]: not given
This is another data set of the same source.

The subject of another data set is lettuce plants. To be noted: in vivo; cited from earlier work.
A further data set concerns radish. The following applies: cited from earlier work.
The test system of a further data set is peas. To be noted: in vivo; cited from earlier work.
The next data set deals with people. The following applies: cited from earlier work.
The mark [4] stands for this setting: 20 mg per plant, potassium salt, 88 days.
Setting [5] is: water buffered at pH 6.7, FIG. 4.
The mark [6] stands for this setting: hydrolysis, rate constants 25 to 85° C.
[7] abbreviates: 85° C., 90% H2O/D2O, only phosphoric acid observed.

Regarding `CCCCOP(=S)(S)OCCCC` [dibutyldithiophosphate], in the data set on corn plants (in vivo), the “heights of corn plants” value is “Little statistically significant difference”, the “weight of corn plants” value was “improvements in weights” and the “weight of corn plants (significance)” value is “statistically significant improvements”. Further, the “number of pods, plant weight and total pod weight” value in the data set on pea plants (10 mg per plant, potassium salt, 88 days) is on record as “statistically significant increase”. Further, in the data set on pea plants (setting [4]), the “increase in number of pods” value came to 55%, the “increase in plant weight” value is reported as 46% and the “increase in total pod weight” value came to 45%. For the same compound, the “germination compared to the control plants” value in the data set with pea plants (150 mg and 500 mg, potassium salt) is recorded as “reduction in germination”. The “number of plants germinating” value with pea plants (150 mg, 25 seeds planted per dosing) is 6 plants. The germination of seeds entry with pea plants (500 mg) is reported as “None of the seeds”. Also, in the data set on soybeans, the “increase in harvest yield of soybeans” value amounted to 4.4%.

As for `CCc1ccc(OP(=S)([S-])Oc2ccc(CC)cc2)cc1.[K+]` [Example 6], the half-life in the data set “physchem” is 93.6 h.

`CC1COP(=S)([S-])O1.[K+]` (stereo not drawn) [Example 3] gave a half-life in “physchem” of 98.4 h.

In turn, `S=P1(S)SCCS1` [Example 11] gave a half-life in the data set “physchem” of 2.04 h.

In the data set “physchem”, `S=P(S)(Sc1ccccc1)Sc1ccccc1` [Example 13] had a half-life of 31.2 h.

`CCCSP(=S)(S)SCCC` [Example 10] showed a half-life in “physchem” of 3.12 h.

In the case of `CC(C)(C)OP(=S)(S)OC(C)(C)C` [Example 8, di(tert-butanol)dithiophosphate Sodium Salt], the “hydrolysis after 30 days” value in [1] (room temperature, 30 days) was “completely hydrolyzed”. Also, in data set [1] (30 days, room temperature), the “Percent Degradation” value stood at 100%. The compound also yielded a percent degraded in data set [1] (day 12, room temperature) of 62%. The same compound yielded a percent degraded in data set [1] (day 20, room temperature) of 88%. The “release of H2S (rank among the dithiophosphates)” value under setting [5] is reported as “highest release of H2S”. In [2] (25° C.), the “ΔG^‡ (25° C.)” value was found to be 25.26 kcal/mol and the “−TΔS^‡ (25° C.)” value was -2.58 kcal/mol. In data set [2] (25° C. vs 85° C.), the “ΔΔG^‡” value amounted to 0.526 kcal/mol. The “ΔG^‡ (85° C.)” value in data set [2] (85° C.) stood at 24.74 kcal/mol. Further, in [2] (hydrolysis), the “sign of ΔS^‡ (in words)” value is listed as “positive”. Moreover, in data set [2] (setting [6]), the “ΔH^‡” value stood at 27.84 kcal/mol and the “ΔS^‡” value was 36.3 J/mol · K. Further, the “Rate of first-step of hydrolysis (85° C.)” value in [3] (85° C., 90% H2O/D2O) was determined as 13.2 h⁻¹. Further, the “Time to complete hydrolysis” value in data set [3] (setting [7]) stood at 0.0493 days. The “rate of hydrolysis, fold slower at room temperature than at 85° C.” value in data set [3] (room temperature vs 85° C.) is 2,600 ×. In addition, in data set [3] (room temperature, 90% H2O/D2O), the “Rate of first-step of hydrolysis” value turned out to be 0.0051 h⁻¹ and the “Time to complete hydrolysis” value is 30 days.

With `S=P1(S)OCCS1` (stereo not drawn) [Example 14], the “release of H2S (rank among the dithiophosphates)” value (pH 6.7) is given as “highest release of H2S”.

Consider `S=P1(S)OCCO1` [Example 2], for which the half-life in the data set “physchem” was 204 h.

Turning to `CC(C)[C@@H]1CC[C@@H](C)C[C@H]1OP(=S)([S-])O[C@@H]1C[C@H](C)CC[C@H]1C(C)C.[K+]` [Example 5], the “release of H2S” value (pH 6.7) is “released H2S”.

Consider `CCCCOP(=S)(S)OCCCC` [Example 1, Dibutyldithiophosphate Ammonium Salt], for which the “Percent Degradation” value in [1] (30 days, room temperature) was less than 3%. For the same compound, in the data set on corn plants (1 mg ammonium salt added to soil adjacent to seed, 4 weeks, vs plants grown without), the “increase in weight of corn plants” value is on record as 39%. Further, the “release of H2S (rank among the dithiophosphates)” value under setting [5] was “lowest release of H2S”. For the same compound, the “Rate of first-step of hydrolysis (85° C.)” value in [3] (85° C., 90% H2O/D2O) came to 0.00096 h⁻¹. Further, in [3] (setting [7]), the “Time to complete hydrolysis” value is listed as 180 days. Also, in data set [3] (85° C., Table 2), the “rate of hydrolysis, fold slower than the compound of Example 2” value was 3.5 ×; the “rate of hydrolysis, fold slower than the dithiophosphate of Example 3” value came out at 7.4 ×; the “rate of hydrolysis, fold slower than the dithiophosphate of Example 4” value stood at 1.4 ×.

Regarding `C1COCCN1.COc1ccc(P(=S)(S)N2CCOCC2)cc1` (stereo not drawn) [GYY-4137], the “growth of lettuce plants” value in the data set on lettuce plants is on record as “increased the growth”. The “growth of radish plants” value in the data set on radish (in vivo) is reported as “increased the growth”. The “harvest yield of radishes” value in the data set on radish (milligram loadings) is reported as “doubled”. Also, in the data set with peas, the “growth of pea plants” value was “increased the growth”.

Compound `S=P1(S)SCCCS1` [Example 12] gave a half-life in “physchem” of 36 h.

As for `S` [Example H2S, hydrogen sulfide], the “level in the air that can lead to negative health effects (headaches, breathing problems in asthma)” value in the data set on people (exposure in the air) is on record as 2 ppm. Moreover, the “level immediately dangerous to life and health” value in the data set with people (exposure) was 100 ppm.

The term half-life denotes the time needed for the level to fall by half in the phase considered. Lower therefore signals rapid decline.
